Experimental data published in ChEMBL document CHEMBL1212758 (Antimicrob Agents Chemother, 2010).

Tests used:
[1] = tested on: Macacine alphaherpesvirus 1; experiment: Ratio of acyclovir EC50 to compound EC50 for Macacine herpesvirus 1 isolate MC2 infected in african green monkey Vero cells; format: functional
[2] = tested on: Macacine alphaherpesvirus 1; experiment: Ratio of acyclovir EC50 to compound EC50 for Macacine herpesvirus 1 isolate E2490 infected in african green monkey Vero cells; format: functional
[3] = tested on: Macacine alphaherpesvirus 1; experiment: Ratio of acyclovir EC50 to compound EC50 for Macacine herpesvirus 1 isolate A1 infected in african green monkey Vero cells; format: functional
[4] = tested on: Macacine alphaherpesvirus 1; experiment: Ratio of acyclovir EC50 to compound EC50 for Macacine herpesvirus 1 isolate MR7 infected in african green monkey Vero cells; format: functional
[5] = tested on: Macacine alphaherpesvirus 1; experiment: Ratio of acyclovir EC50 to compound EC50 for Macacine herpesvirus 1 isolate MJ1 infected in african green monkey Vero cells; format: functional
[6] = tested on: Macacine alphaherpesvirus 1; experiment: Ratio of acyclovir EC50 to compound EC50 for Macacine herpesvirus 1 isolate MR9 infected in african green monkey Vero cells; format: functional
[7] = tested on: Macacine alphaherpesvirus 1; experiment: Ratio of acyclovir EC50 to compound EC50 for Macacine herpesvirus 1 isolate MR8 infected in african green monkey Vero cells; format: functional
[8] = tested on: Macacine alphaherpesvirus 1; experiment: Ratio of acyclovir EC50 to compound EC50 for Macacine herpesvirus 1 isolate MR3 infected in african green monkey Vero cells; format: functional
[9] = tested on: Macacine alphaherpesvirus 1; experiment: Ratio of acyclovir EC50 to compound EC50 for Macacine herpesvirus 1 isolate MR10 infected in african green monkey Vero cells; format: functional
[10] = tested on: Macacine alphaherpesvirus 1; experiment: Ratio of acyclovir EC50 to compound EC50 for Macacine herpesvirus 1 isolate MR6 infected in african green monkey Vero cells; format: functional
Human alphaherpesvirus 1 [11] = experiment: Ratio of acyclovir EC50 to compound EC50 for HSV1 infected in african green monkey Vero cells; format: functional
[12] = tested on: Macacine alphaherpesvirus 1; experiment: Ratio of acyclovir EC50 to compound EC50 for Macacine herpesvirus 1 isolate MC1 infected in african green monkey Vero cells; format: functional
[13] = tested on: Macacine alphaherpesvirus 1; experiment: Ratio of acyclovir EC50 to compound EC50 for Macacine herpesvirus 1 isolate MJ3 infected in african green monkey Vero cells; format: functional
[14] = tested on: Macacine alphaherpesvirus 1; experiment: Ratio of acyclovir EC50 to compound EC50 for Macacine herpesvirus 1 isolate MJ2 infected in african green monkey Vero cells; format: functional
[15] = tested on: Macacine alphaherpesvirus 1; experiment: Ratio of acyclovir EC50 to compound EC50 for Macacine herpesvirus 1 isolate MR4 infected in african green monkey Vero cells; format: functional
[16] = tested on: Macacine alphaherpesvirus 1; experiment: Ratio of acyclovir EC50 to compound EC50 for Macacine herpesvirus 1 isolate A5 infected in african green monkey Vero cells; format: functional
[17] = tested on: Macacine alphaherpesvirus 1; experiment: Ratio of acyclovir EC50 to compound EC50 for Macacine herpesvirus 1 isolate MR5 infected in african green monkey Vero cells; format: functional
Human alphaherpesvirus 2 [18] = experiment: Ratio of acyclovir EC50 to compound EC50 for HSV 2 infected in african green monkey Vero cells; format: functional
[19] = tested on: Macacine alphaherpesvirus 1; experiment: Ratio of acyclovir EC50 to compound EC50 for Macacine herpesvirus 1 isolate A2 infected in african green monkey Vero cells; format: functional
[20] = tested on: Macacine alphaherpesvirus 1; experiment: Ratio of acyclovir EC50 to compound EC50 for Macacine herpesvirus 1 isolate MR1 infected in african green monkey Vero cells; format: functional
[21] = tested on: Macacine alphaherpesvirus 1; experiment: Ratio of acyclovir EC50 to compound EC50 for Macacine herpesvirus 1 isolate A6 infected in african green monkey Vero cells; format: functional
[22] = tested on: Macacine alphaherpesvirus 1; experiment: Ratio of acyclovir EC50 to compound EC50 for Macacine herpesvirus 1 isolate A3 infected in african green monkey Vero cells; format: functional
[23] = tested on: Macacine alphaherpesvirus 1; experiment: Ratio of acyclovir EC50 to compound EC50 for Macacine herpesvirus 1 isolate A4 infected in african green monkey Vero cells; format: functional
[24] = tested on: Macacine alphaherpesvirus 1; experiment: Ratio of acyclovir EC50 to compound EC50 for Macacine herpesvirus 1 isolate MR11 infected in african green monkey Vero cells; format: functional
[25] = tested on: Macacine alphaherpesvirus 1; experiment: Ratio of acyclovir EC50 to compound EC50 for Macacine herpesvirus 1 isolate MR2 infected in african green monkey Vero cells; format: functional
[26] = tested on: Macacine alphaherpesvirus 1; experiment: Ratio of acyclovir EC50 to compound EC50 for Macacine herpesvirus 1 isolate MP1 infected in african green monkey Vero cells; format: functional
Human alphaherpesvirus 1 [27] = experiment: Antiviral activity against HSV1 infected in african green monkey Vero cells by plaque reduction assay; format: functional, organism-based; settings: Human alphaherpesvirus 1, Vero
[28] = tested on: Macacine alphaherpesvirus 1; experiment: Antiviral activity against Macacine herpesvirus 1 isolate MC1 infected in african green monkey Vero cells by plaque reduction assay; format: functional, organism-based; settings: Macacine alphaherpesvirus 1, isolate MC1, Vero
Human alphaherpesvirus 2 [29] = experiment: Antiviral activity against HSV2 infected in african green monkey Vero cells by plaque reduction assay; format: functional, organism-based; settings: Human alphaherpesvirus 2, Vero
[30] = tested on: Macacine alphaherpesvirus 1; experiment: Antiviral activity against Macacine herpesvirus 1 infected in rabbits assessed as survival after 5 months; format: functional

Structure (SMILES) | Ratio EC50 [1] | Ratio EC50 [2] | Ratio EC50 [3] | Ratio EC50 [4] | Ratio EC50 [5] | Ratio EC50 [6] | Ratio EC50 [7] | Ratio EC50 [8] | Ratio EC50 [9] | Ratio EC50 [10] | Ratio EC50 (Human alphaherpesvirus 1 [11]) | Ratio EC50 [12] | Ratio EC50 [13] | Ratio EC50 [14] | Ratio EC50 [15] | Ratio EC50 [16] | Ratio EC50 [17] | Ratio EC50 (Human alphaherpesvirus 2 [18]) | Ratio EC50 [19] | Ratio EC50 [20] | other results
Cc1cn([C@@H]2O[C@H](CO)[C@@H](O)[C@@H]2F)c(=O)nc1N | 10 | 10 | 10 | 10 | 10 | 10 | 10 | 10 | 10 | 10 | 10 | 10 | 10 | 10 | 10 | 10 | 10 | 10 | 10 | 10 | Ratio EC50 [21]: 10; Ratio EC50 [22]: 10; Ratio EC50 [23]: 10; Ratio EC50 [24]: 10; Ratio EC50 [25]: 10; Ratio EC50 [26]: 10
Nc1nc2c(ncn2COC(CO)CO)c(=O)[nH]1 [GANCICLOVIR] | – | – | – | – | – | – | – | – | – | – | – | – | – | – | – | – | – | – | – | – | EC50 (Human alphaherpesvirus 1 [27]): 19.3 µM; EC50 [28]: 19.3 µM; EC50 (Human alphaherpesvirus 2 [29]): 19.3 µM; Activity [30]: 100%
Cc1cn([C@H]2O[C@@H](CO)[C@H](O)[C@H]2F)c(=O)[nH]c1=O [CLEVUDINE] | 100 | 100 | 100 | 100 | 100 | 100 | 100 | 100 | 100 | 100 | 100 | 100 | 100 | 100 | 100 | 100 | 100 | 100 | 100 | 100 | Ratio EC50 [21]: 100; Ratio EC50 [22]: 100; Ratio EC50 [23]: 100; Ratio EC50 [24]: 100; Ratio EC50 [25]: 100; Ratio EC50 [26]: 100
CCc1cn([C@H]2O[C@@H](CO)[C@H](O)[C@H]2F)c(=O)[nH]c1=O (single isomer, unassigned) | 100 | 100 | 100 | 100 | 100 | 100 | 100 | 100 | 100 | 100 | 100 | 100 | 100 | 100 | 100 | 100 | 100 | 100 | 100 | 100 | Ratio EC50 [21]: 100; Ratio EC50 [22]: 100; Ratio EC50 [23]: 100; Ratio EC50 [24]: 100; Ratio EC50 [25]: 100; Ratio EC50 [26]: 100
Nc1nc(=O)n([C@@H]2O[C@H](CO)[C@@H](O)[C@@H]2F)cc1Br | 10 | 10 | 10 | 10 | 10 | 10 | 10 | 10 | 10 | 10 | 10 | 10 | 10 | 10 | 10 | 10 | 10 | 10 | 10 | 10 | Ratio EC50 [21]: 10; Ratio EC50 [22]: 10; Ratio EC50 [23]: 10; Ratio EC50 [24]: 10; Ratio EC50 [25]: 10; Ratio EC50 [26]: 10
